Test results reported in ChEMBL document CHEMBL5120836, “Discovery of novel 7,8-dihydropteridine-6(5H)-one-based DNA-PK inhibitors as potential anticancer agents via scaffold hopping strategy” (Eur J Med Chem, 2022).

How the values were obtained:
MDA-MB-231 [1] = assay: Synergistic antiproliferative activity against human MDA-MB-231 cells assessed as combination index at 6.25 uM in presence of 0.1 uM doxorubicin by MTT assay; assay type: functional
HCT-116 [2] = assay: Antiproliferative activity against human HCT-116 cells assessed as inhibition of cell growth incubated for 48 hrs in presence of 100 nM doxorubicin by MTT assay; assay type: functional, cell-based; conditions: HCT-116, 48 h
HL-60 [3] = assay: Synergistic antiproliferative activity against human HL-60 cells assessed as combination index at 3.1 uM in presence of 0.1 uM doxorubicin by MTT assay; assay type: functional
[4] = MRT (0 to infinity) in Sprague-Dawley rat at 5 mg/kg, po; assay type: ADME, organism-based; conditions: in vivo
[5] = target: Phosphatidylinositol 4,5-bisphosphate 3-kinase catalytic subunit gamma isoform (Homo sapiens, UniProt P48736); assay: Inhibition of human PI3Kgamma by ADP-Glo assay; assay type: toxicity
[6] = Toxicity in BALB/c nude mouse xenografted with human HL-60 cells assessed as PCT level at 100 mg/kg, po qd for 16 days (reference value: 0.7%); assay type: organism-based; conditions: in vivo, 384 h, time 16 day
HL-60 [7] = assay: Synergistic antiproliferative activity against human HL-60 cells assessed as combination index at 0.1 uM in presence of 0.1 uM doxorubicin by MTT assay; assay type: functional
[8] = Half life in human liver microsomes; assay type: ADME, Microsome
HL-60 [9] = assay: Synergistic antiproliferative activity against human HL-60 cells assessed as combination index at 0.5 uM in presence of 0.1 uM doxorubicin by MTT assay; assay type: functional
HepG2 [10] = assay: Synergistic antiproliferative activity against Doxorubicin-resistant human HepG2 cells assessed as combination index at 0.1 uM in presence of 0.1 uM doxorubicin by MTT assay; assay type: functional
HepG2 [11] = assay: Synergistic antiproliferative activity against Doxorubicin-resistant human HepG2 cells assessed as combination index at 50 uM in presence of 0.1 uM doxorubicin by MTT assay; assay type: functional
MDA-MB-231 [12] = assay: Synergistic antiproliferative activity against human MDA-MB-231 cells assessed as combination index at 1 uM in presence of 0.1 uM doxorubicin by MTT assay; assay type: functional
[13] = Toxicity in BALB/c nude mouse xenografted with human HL-60 cells assessed as PDW level at 100 mg/kg, po qd for 16 days (reference value: 8.16 fL); assay type: organism-based; conditions: in vivo, 384 h, time 16 day
HepG2 [14] = assay: Synergistic antiproliferative activity against Doxorubicin-resistant human HepG2 cells assessed as combination index at 3.1 uM in presence of 0.1 uM doxorubicin by MTT assay; assay type: functional
HepG2 [15] = assay: Synergistic antiproliferative activity against Doxorubicin-resistant human HepG2 cells assessed as combination index at 100 uM in presence of 0.1 uM doxorubicin by MTT assay; assay type: functional
[16] = Toxicity in BALB/c nude mouse xenografted with human HL-60 cells assessed as effect on body weight at 100 mg/kg, po qd for 16 days co-administered with doxorubicin; assay type: organism-based; conditions: in vivo, 384 h, time 16 day
[17] = Toxicity in BALB/c nude mouse xenografted with human HL-60 cells assessed as RDW-CV level at 100 mg/kg, po qd for 16 days (reference value: 14.25%); assay type: organism-based; conditions: in vivo, 384 h, time 16 day
HL-60 [18] = assay: Synergistic antiproliferative activity against human HL-60 cells assessed as combination index at 12.5 uM in presence of 0.1 uM doxorubicin by MTT assay; assay type: functional
[19] = Toxicity in BALB/c nude mouse xenografted with human HL-60 cells assessed as serum monocytes content at 100 mg/kg, po qd for 16 days (reference value: 0.5X10^9/L); assay type: organism-based; conditions: in vivo, 384 h, time 16 day
HCT-116 [20] = assay: Disruption of mitochondrial function in human HCT-116 cells assessed as decrease in mitochondrial membrane potential by measuring proportion of cells with green fluorescence at 1 uM incubated for 24 hrs by JC-1 staining based flow cytometry (reference value: 0.566%); assay type: functional; parameters: scale not given: the % may be the effect or the level left
MCF7 [21] = assay: Synergistic antiproliferative activity against human MCF7 cells assessed as combination index at 50 uM in presence of 0.1 uM doxorubicin by MTT assay; assay type: functional
[22] = Toxicity in BALB/c nude mouse xenografted with human HL-60 cells assessed as serum monocytes content at 100 mg/kg, po qd for 16 days (reference value: 12.2%); assay type: organism-based; conditions: in vivo, 384 h, time 16 day
[23] = Tmax in Sprague-Dawley rat at 5 mg/kg, po; assay type: ADME, organism-based; conditions: in vivo
MDA-MB-231 [24] = assay: Synergistic antiproliferative activity against human MDA-MB-231 cells assessed as combination index at 0.5 uM in presence of 0.1 uM doxorubicin by MTT assay; assay type: functional
MCF7 [25] = assay: Synergistic antiproliferative activity against human MCF7 cells assessed as combination index at 0.5 uM in presence of 0.1 uM doxorubicin by MTT assay; assay type: functional
HCT-116 [26] = assay: Synergistic antiproliferative activity against human HCT-116 cells assessed as combination index at 100 uM incubated for 48 hrs in presence of 0.1 to 50 uM doxorubicin by MTT assay; assay type: functional
[27] = Toxicity in BALB/c nude mouse xenografted with human HL-60 cells assessed as serum RBC content at 100 mg/kg, po qd for 16 days (reference value: 10.375X10^12/L); assay type: organism-based, Erythrocyte; conditions: in vivo, 384 h, time 16 day
MCF7 [28] = assay: Synergistic antiproliferative activity against human MCF7 cells assessed as combination index at 6.25 uM in presence of 0.1 uM doxorubicin by MTT assay; assay type: functional
MDA-MB-231 [29] = assay: Synergistic antiproliferative activity against human MDA-MB-231 cells assessed as combination index at 25 uM in presence of 0.1 uM doxorubicin by MTT assay; assay type: functional

Sequence of Phosphatidylinositol 4,5-bisphosphate 3-kinase catalytic subunit gamma isoform (P48736 whole entry, canonical isoform): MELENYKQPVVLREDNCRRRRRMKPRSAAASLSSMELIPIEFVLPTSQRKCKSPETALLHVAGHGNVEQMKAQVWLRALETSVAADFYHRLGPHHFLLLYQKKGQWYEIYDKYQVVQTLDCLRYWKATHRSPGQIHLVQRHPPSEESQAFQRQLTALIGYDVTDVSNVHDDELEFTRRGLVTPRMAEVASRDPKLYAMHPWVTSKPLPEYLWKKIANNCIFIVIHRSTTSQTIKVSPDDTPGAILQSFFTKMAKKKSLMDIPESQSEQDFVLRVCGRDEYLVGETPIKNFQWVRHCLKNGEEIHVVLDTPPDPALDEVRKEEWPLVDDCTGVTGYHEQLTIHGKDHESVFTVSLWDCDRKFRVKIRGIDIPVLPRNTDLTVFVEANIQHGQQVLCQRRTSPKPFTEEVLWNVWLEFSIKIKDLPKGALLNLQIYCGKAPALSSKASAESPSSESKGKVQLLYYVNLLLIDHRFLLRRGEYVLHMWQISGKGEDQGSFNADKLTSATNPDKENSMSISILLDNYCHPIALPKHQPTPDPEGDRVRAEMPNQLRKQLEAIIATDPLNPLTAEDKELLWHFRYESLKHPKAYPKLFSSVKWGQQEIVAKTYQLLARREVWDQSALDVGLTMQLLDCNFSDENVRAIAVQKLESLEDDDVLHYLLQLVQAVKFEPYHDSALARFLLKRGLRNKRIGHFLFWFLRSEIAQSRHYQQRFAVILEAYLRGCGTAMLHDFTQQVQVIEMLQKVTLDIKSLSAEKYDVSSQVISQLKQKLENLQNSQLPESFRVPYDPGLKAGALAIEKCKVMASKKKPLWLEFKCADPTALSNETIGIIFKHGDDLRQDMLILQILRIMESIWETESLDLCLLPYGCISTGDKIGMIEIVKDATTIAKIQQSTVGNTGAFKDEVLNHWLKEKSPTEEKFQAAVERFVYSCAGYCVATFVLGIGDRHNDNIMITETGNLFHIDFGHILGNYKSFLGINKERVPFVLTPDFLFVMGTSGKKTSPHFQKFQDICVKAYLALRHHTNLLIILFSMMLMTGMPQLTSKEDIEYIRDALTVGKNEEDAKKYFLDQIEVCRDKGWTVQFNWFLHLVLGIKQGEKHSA

IC50 (HCT-116 [2]): 17.1 µM | MRT inf [4]: 2.29 h | half-life [8]: > 2.42 h | Tmax [23]: 0.42 h
Compound: Cc1cc2ncnn2cc1Nc1ncc2c(n1)N(C1CCOCC1)CC(=O)N2C
CI (MDA-MB-231 [1]): 0.3693 | CI (HL-60 [3]): 0.01772 | IC50 [5]: 0.281 µM | Activity [6]: 0.641% | CI (HL-60 [7]): 0.00121 | CI (HL-60 [9]): 0.00341 | CI (HepG2 [10]): 0.06059 | CI (HepG2 [11]): 0.09496 | CI (MDA-MB-231 [12]): 0.2676 | Activity [13]: 7.4 fL | CI (HepG2 [14]): 0.02104 | CI (HepG2 [15]): 0.1244 | Activity [16]: Non-Toxic | Activity [17]: 15% | CI (HL-60 [18]): 0.06945 | Activity [19]: 0.51 10^9/L | Activity (HCT-116 [20]): 3.55% | CI (MCF7 [21]): 0.1215 | Activity [22]: 12.15% | CI (MDA-MB-231 [24]): 0.3617 | CI (MCF7 [25]): 0.04646 | CI (HCT-116 [26]): <0.1 | Activity [27]: 10.315 10^12/L | CI (MCF7 [28]): 0.06841 | CI (MDA-MB-231 [29]): 0.5933
